Experimental data published in patent US20220002674A1, “T CELLS WITH SUICIDE SWITCH” (priority 2018, published 2022).

What was measured:
[1] = tested on: CD3+CD19+ cells (iC9+ T cells); test: flow cytometric analysis of cells harvested from spleens 48 h post drug treatment; type: in vivo, NSG mice; settings: for reduction of CD3+CD19+ cells in spleen: 48 h, compared to vehicle
Procedure: (§1) In vivo studies were performed by i.v. injection of control or gene-modified T cells co-expressing luciferase into NSG mice. 1×10^7 EGFPluc+ iC9-T cells were infused into NSG mice. T cell bioluminescence was measured at 2 and 24 hours after infusion, followed by i.p. injection of a titrated dose of rimiducid or placebo (control drug). The animals were administered either control drug (temsirolimus; 1 mg/kg), rimiducid (0.001-1 mg/kg), or vehicle. Remaining T cell bioluminescence was measured at 6, 24 and 48 hours after drug administration. Bioluminescent imaging and flow cytometry were performed to assess in vivo depletion following iC9 activation.
FIG. 18 depicts a flow cytometric analysis of cells harvested from spleens 48 h post drug treatment.

[2] = tested on: EGFPluc+ iC9-T cells; test: T cell bioluminescence (IVIS) in NSG mice after rimiducid; type: in vivo
Procedure: as §1
The maximal elimination effect in the kill switch induced by rimiducid was reached 24 hours post drug administration. The values for average radiance were normalized to the initial radiance in each mouse using the formula: D Average radiance=100*[Timepoint “X” radiance]/[Timepoint “0” radiance]. Error bars represents S.E.M. Two-way ANOVA test was used to assess statistical significance of differences in T cell radiance between multiple groups at different time points.

[3] = tested on: AOS-1 T cells; test: 4-hour apoptosis assay with 10 nM rimiducid on AOS-1 T cells sorted by CD19 intensity; type: cell-based, human; settings: for CD19+ specific killing: low-CD19 sorted cells; for median killing efficacy: 10 nM, 4 hours
Procedure: To measure apoptosis 5×10^5 cells were plated per 48-well, and rimiducid was added at a concentration of 10 nM in a 4-hour assay. Phenotyping and functional assays (e.g., apoptosis) were performed by flow cytometry, qPCR and Western blot before and after T cell reactivation using anti-CD3/anti-CD28 antibodies. The phenotype of the cells was determined by staining cells for flow cytometry analysis with anti-CD3, anti-CD4, anti-CD8, anti-CD19, anti-CD45RA, anti-CD45RO, and anti-CCR7 antibodies. Terminal effector memory cells are defined as CD45RA^+CD45RO^−CCR7^−. T effector memory cells are defined as CD45RA^−CD45RO^+CCR7^−. T central memory cells are defined as CD45RA^−CD45RO^+CCR7^+. Naïve T cells are defined as CD45RA^+CD45RO^−CCR7^+. Diversity of the T cell receptor repertoire was assessed by flow cytometry.

[4] = tested on: CD3+CD19+ T cells; test: rimiducid treatment of patients engrafted with AOS-1 to control GvHD; type: in vivo, human
Procedure: Engraftment and persistence of the donor modified T cells were measured by co-expression of CD3 and CD19 by flow cytometry. Endogenous and gene-modified T cells were also phenotyped for CD4:CD8 ratios, memory cell composition (TN, TCM, TEM, TEMRA; CD45RA and CD62L) and T cell receptor Vβ diversity.

[5] = tested on: genetically-modified T cells; test: rimiducid dose that eliminates infused genetically-modified T cells; type: in vivo; settings: cells infused at 1.5×10^7 cells/kg
[6] = tested on: AOS-1 cells; test: speed of elimination of low-, medium- and high-CD19 populations in mice after rimiducid (FIG. 27); type: in vivo; settings: 5 mg/kg rimiducid on day 0, 1.5×10^7 AOS-1 cells on day −1
From the text: Figures are means from 40 mice.
Further experiments looked at the speed of elimination of low-CD19, medium-CD19 and high-CD19 populations after administration of rimiducid.

[7] = human, in vivo; cited from earlier work
[8] = tested on: WT1, PRAME, MAGE, NE and PR3; test: IFN-γ ELIspot for LAA-specific T cells against peptide pools; type: cell-based, human; settings: 10 nM rimiducid
Procedure: PBMCs were mixed with pre-warmed (37° C.) cell culture media and centrifuged cells at […] for 10′ at 4° C. Cells were resuspended and counted using Cellometer. Cells were then centrifuged again at 1200 rpm for 10′. The cells were then resuspended in culture media at a concentration of 1×10^6/mL and 100 μL were added per well. 100 μL of 2X peptide stock or PHA were added to the desired wells. The plates were mixed gently for 2′. The plates were transferred to a 37° C. incubator with 5% CO2 and incubated for 18-24 hours. 100 μL capture anti-IFNγ antibody was added to each PBS-pre wetted well. The plates were then incubated at 4±3° C. overnight. After incubation the plates were washed 3 times with 200 μL D-PBS. Unbound sites were blocked with 100 μL D-PBS containing 10% culture media for 120+15 minutes at room temperature in a BSC. The plates were then washed 3 times with 200 μL D-PBS. 200 μL D-PBS were added into the wells. The plates were left at room temperature until the cells are ready. When cells were ready plates were removed from the incubator and the wells rinsed 2 times with tap water. The plates were then washed 5 times with D-PBS, containing 0.05% Tween 20. The wells and well bottoms were rinsed with distilled water. […] Plates were left to dry at room temperature before reading on an ELISpot reader.

CC[C@H](C(=O)N1CCCC[C@H]1C(=O)O[C@H](CCc1ccc(OC)c(OC)c1)c1cccc(OCC(=O)NCCNC(=O)COc2cccc([C@@H](CCc3ccc(OC)c(OC)c3)OC(=O)[C@@H]3CCCCN3C(=O)[C@@H](CC)c3cc(OC)c(OC)c(OC)c3)c2)c1)c1cc(OC)c(OC)c(OC)c1 (relative stereo) [rimiducid, 2-Piperidinecarboxylic acid, 1-[(2S)-1-oxo-2-(3,4,5-trimethoxyphenyl)butyl]-, 1,2-ethanediylbis[imino(2-oxo-2,1-ethanediyl)oxy-3,1-phenylene[(1R)-3-(3,4-dimethoxyphenyl)propylidene]] ester, [2S-[1(R*),2R*[S*[S*[1(R*),2R*]]]]]-(9CI)]
reduction of CD3+CD19+ cells in spleen ([1]; 0.01 mg/kg): 99.6% | reduction of CD3+CD19+ cells in spleen ([1]; 0.1 mg/kg): 98.6% | reduction of CD3+CD19+ cells in spleen ([1]; 1 mg/kg): 89.6% | MFI of CD19 in CD3+CD19+ cells ([1]; treated groups, down to 0.001 mg/kg): dose dependent decrease | reduction of relative total flux ([2]; 0.01 mg/kg i.p., 6-hour): 82.5% | reduction of relative total flux ([2]; 0.01 mg/kg i.p., 24-hour): 90.5% | reduction of relative total flux ([2]; 0.01 mg/kg i.p., 48-hour): 90.5% | reduction of relative total flux ([2]; 0.1 mg/kg i.p., 6-hour): 92.5% | reduction of relative total flux ([2]; 0.1 mg/kg i.p., 24-hour): 95.5% | reduction of relative total flux ([2]; 0.1 mg/kg i.p., 48-hour): 95.3% | reduction of relative total flux ([2]; 1 mg/kg i.p., 6-hour): 96% | reduction of relative total flux ([2]; 1 mg/kg i.p., 24-hour): 98.1% | reduction of relative total flux ([2]; 1 mg/kg i.p., 48-hour): 98.1% | time at which maximal elimination effect was reached ([2]; post drug administration): 24 h | apoptosis ([3]; all fractions after reactivation with anti-CD3/anti-CD28): over 90% | cells gone through apoptosis ([3]; high MFI of CD19 cells, 10 nM rimiducid, within 4 hours): more than 95% | CD19+ specific killing ([3]; after activation in vitro): 97% | CD19+ specific killing ([3]; before activation): 46% | median killing efficacy ([3]; sorted high CD19 cells): 92% | median killing efficacy ([3]; sorted low CD19 cells): 69% | median killing efficacy ([3]; sorted medium CD19 cells): 87% | killing ([3]; unstimulated high iC9-ΔCD19 cells): 86% | killing ([3]; unstimulated low iC9-ΔCD19 cells): 50% | killing ([3]; unstimulated medium iC9-ΔCD19 cells): 76% | course of CD3+CD19+ T cells and GvHD after rimiducid ([4]; patients treated with rimiducid): recovered without further instances of GvHD | decrease of CD3+CD19+ T cells in the peripheral blood ([4]; three patients with GvHD): 62±12% | dose that can eliminate cells [5]: 0.4 mg/kg | elimination of CD19-high cells [6]: eliminated within half an hour | elimination of CD19-low cells [6]: declined more slowly | elimination of CD19-medium cells [6]: fell to near-zero within an hour | safety in healthy volunteers [7]: proven safe in healthy volunteers | LAA-reactivity on exposure to rimiducid [8]: greatly diminished
